In patent publication US11479563B2, “Biphenyl compound or salt thereof” (TAIHO PHARMACEUTICAL CO., LTD., priority 2017, dated 2022):

How the values were obtained:
[1] = system: HEL cells (human acute myelocytic leukemia cell lines); assay: cells; conditions: read-out: Cell-Growth Inhibition Test: HEL Cells IC50 (nM);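 further: viable cell count by CellTiter-Glo 2.0 luminescence after 5 days of culture at 37 °C, growth expressed relative to DMSO-only wells as 100%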
[2] = system: NCI-H1417 cells (human small-cell lung cancer cell lines); assay: cells; conditions: NCI-H1417, read-out: Cell-Growth Inhibition Test: NCI-H1417 Cells IC50 (nM);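 further: growth of NCI-H1417 cells over 10 days at 37 °C, read as viable-cell luminescence by CellTiter-Glo 2.0, expressed as % of DMSO-only control wells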
[3] = system: NCI-H146 cells (human small-cell lung cancer cell lines); assay: Cell-growth inhibition test: NCI-H146 cells; assay type: cell-based; conditions: Homo sapiens, NCI-H146, read-out: Cell-Growth Inhibition Test: NCI-H146 Cells IC50 (nM)
Procedure: Under the following conditions, an in vitro cell-growth inhibition test was performed with respect to HEL cells (human acute myelocytic leukemia cell lines), NCI-H1417 cells (human small-cell lung cancer cell lines), and NCI-H146 cells (human small-cell lung cancer cell lines).
The cells with the compound of the present invention or with dimethylsulfoxide alone were cultured at 37° C. in a 5% carbon-dioxide-containing incubator for 5 days (HEL cells) or 10 days (NCI-H1417 cells and NCI-H146 cells). After culture, the plate was allowed to stand at room temperature for 30 minutes, and 100 μL of the supernatant was removed from each well to leave 100 μL of the cell culture solution. To each well containing the remaining 100 μL of the cell culture solution, the same amount of CellTiter-Glo 2.0 Assay (Promega, Cat #: G9242) was added. The microplate was shaken with a plate mixer for 1 minute and then allowed to stand in a dark place for 10 minutes. Thereafter, the luminescence intensity of viable cells in each well was measured using a microplate reader (PerkinElmer, EnSpire). […] Cell growth rate (%)=T/C×100 T: The luminescence intensity in a well to which the compound of the present invention was added (count per second) C: The luminescence intensity in a well to which dimethylsulfoxide alone was added (count per second)

| SMILES | IC50 [1] [nM] | IC50 [2] [nM] | IC50 [3] [nM] |
| --- | --- | --- | --- |
| Cn1c(=O)sc2cc(-c3ccc(C(=O)N4[C@@H]5CC[C@H]4C[C@@H](N)C5)cc3-c3ccc(C#N)c(F)c3)ccc21 [Example 133] | 17.7 | 17.9 | – |
| CC(C)(O)Cn1ccc2cc(-c3ccc(C(=O)N4C5CCC4C(N)C5)cc3-c3ccc(C#N)c(F)c3)c(F)cc21 (centres unmarked) [Example 171] | 0.09 | – | – |
| CC(C)(O)Cn1nnc2cc(-c3ccc(C(=O)N4CC[C@H](N)C4)cc3-c3ccc(C#N)c(F)c3)c(F)c(F)c21 [Example 162] | 17.7 | 4.69 | – |
| CC(C)(O)Cn1ncc2cc(-c3ccc(C(=O)N4C5CCC4C(N)C5)cc3-c3ccc(C#N)c(F)c3)c(F)cc21 (centres unmarked) [Example 176] | 0.2 | – | – |
| CN(C)c1ccc(-c2ccc(C(=O)N3[C@@H]4CC[C@H]3C[C@@H](N)C4)cc2-c2ccc(C#N)c(F)c2)cn1 [Example 131] | 15.2 | 30.9 | – |
| Cn1cc(C(=O)O)c2cc(-c3ccc(C(=O)N4C5CCC4C(N)C5)cc3-c3ccc(C#N)c(F)c3)c(F)cc21 [Example 224, 5-(5-((1S,2S,4R)-rel-2-amino-7-azabicyclo[2.2.1]heptane-7-carbonyl)-4′-cyano-3′-fluoro-[1,1′-biphenyl]-2-yl)-6-fluoro-1-methyl-1H-indole-3-carboxylic acid-isomer-X] | 46.2 | – | – |
| Cn1cnc2cc(-c3ccc(C(=O)N4[C@@H]5CC[C@H]4C[C@H](N)C5)cc3-c3ccc(C#N)c(F)c3)c(F)cc21 [Example 108] | 36.4 | 3.99 | – |
| CC(C)(O)Cn1cc(C(=O)O)c2cc(-c3ccc(C(=O)N4C5CCC4C(N)C5)cc3-c3ccc(C#N)c(F)c3)c(F)cc21 [Example 222, 5-(5-((1S,2S,4R)-rel-2-amino-7-azabicyclo[2.2.1]heptane-7-carbonyl)-4′-cyano-3′-fluoro-[1,1′-biphenyl]-2-yl)-6-fluoro-1-(2-hydroxy-2-methylpropyl)-1H-indole-3-carboxylic acid-isomer-X] | 38 | 41.8 | – |
| CC(C)(O)Cn1ccc2cc(-c3ccc(C(=O)N4[C@@H]5CC[C@H]4C[C@@H](N)C5)cc3-c3ccc(C#N)c(F)c3)c(F)cc21 [Example 136] | 0.9 | 2.39 | – |
| N#Cc1ccc(-c2cc(C(=O)N3[C@@H]4CC[C@H]3C[C@H](N)C4)ccc2-c2ccc3cccnc3c2)cc1F [Example 107] | – | 18.2 | – |
| CN1CCOc2cc(-c3ccc(C(=O)N4[C@@H]5CC[C@H]4C[C@H](N)C5)cc3-c3ccc(C#N)c(F)c3)ccc21 [Example 106] | 5.74 | 6.15 | – |
| Cc1ccc(-c2ccc(C(=O)N3[C@@H]4CC[C@H]3C[C@@H](N)C4)cc2-c2ccc(C#N)c(F)c2)c(F)c1 [Example 21] | 8.34 | 32.6 | – |
| CN1CCOc2cc(-c3ccc(C(=O)N4[C@@H]5CC[C@H]4C[C@@H](N)C5)cc3-c3ccc(C#N)c(F)c3)ccc21 [Example 128] | 5.7 | – | – |
| COCCc1ccc(-c2ccc(C(=O)N3[C@@H]4CC[C@H]3C[C@H](N)C4)cc2-c2ccc(C#N)c(F)c2)c(F)c1 [Example 26] | 4.83 | 3.15 | – |
| N#Cc1ccc(-c2cc(C(=O)N3C4CCC3C(N)C4)ccc2-c2cc3nnn(CC4(O)CCC4)c3c(Cl)c2F)cc1F [Example 257, 5′-((1S,2S,4R)-rel-2-amino-7-azabicyclo[2.2.1]heptane-7-carbonyl)-2′-(7-chloro-6-fluoro-1-((1-hydroxycyclobutyl)methyl)-1H-benzo[d][1,2,3]triazol-5-yl)-3-fluoro-[1,1′-biphenyl]-4-carbonitrile-isomer-X] | 0.13 | – | 0.39 |
| Cc1ccc(-c2ccc(C(=O)N3[C@@H]4CC[C@H]3C[C@H](N)C4)cc2-c2ccc(C#N)cc2)cc1 [Example 7] | 14.8 | 28 | – |
| Cn1cnc2cc(-c3ccc(C(=O)N4[C@@H]5CC[C@H]4C[C@@H](N)C5)cc3-c3ccc(C#N)c(F)c3)c(F)cc21 [Example 130] | 22.2 | 8.25 | – |
| Cn1nnc2cc(-c3ccc(C(=O)N4C5CCC4C(N)C5)cc3-c3ccc(C#N)c(F)c3)c(F)c(F)c21 (centres unmarked) [Example 175] | 0.2 | – | – |
| Cn1ncc2c(F)c(-c3ccc(C(=O)N4[C@@H]5CC[C@H]4C[C@H](N)C5)cc3-c3ccc(C#N)c(F)c3)ccc21 [Example 110] | 7.41 | 3.54 | – |

| SMILES | IC50 [1] [nM] | IC50 [2] [nM] | IC50 [3] [nM] |
| --- | --- | --- | --- |
| CC(C)(O)Cn1nnc2cc(-c3ccc(C(=O)N4C5CCC4C(N)C5)cc3-c3ccc(C#N)c(F)c3)c(F)c(C3CC3)c21 [Example 279, 5′-((1R,2R,4S)-rel-2-amino-7-azabicyclo[2.2.1]heptane-7-carbonyl)-2′-(7-cyclopropyl-6-fluoro-1-(2-hydroxy-2-methylpropyl)-1H-benzo[d][1,2,3]triazol-5-yl)-3-fluoro-[1,1′-biphenyl]-4-carbonitrile-isomer-X] | 1.59 | 0.9 | – |
| CC(C)(O)Cn1ncc2cc(-c3ccc(C(=O)N4[C@@H]5CC[C@H]4C[C@@H](N)C5)cc3-c3ccc(C#N)c(F)c3)c(F)cc21 [Example 142] | 3.86 | 3.79 | – |
| CCn1nnc2cc(-c3ccc(C(=O)N4[C@@H]5CC[C@H]4C[C@@H](N)C5)cc3-c3ccc(C#N)c(F)c3)c(F)cc21 [Example 160] | 7.03 | 9.2 | – |
| N#Cc1ccc(-c2cc(C(=O)N3[C@@H]4CC[C@H]3C[C@@H](N)C4)ccc2-c2cc3nnn(CC4(O)CCC4)c3c(C(F)F)c2F)cc1F [Example 262, 5′-((3-endo)-3-amino-8-azabicyclo[3.2.1]octane-8-carbonyl)-2′-(7-(difluoromethyl)-6-fluoro-1-((1-hydroxycyclobutyl)methyl)-1H-benzo[d][1,2,3]triazol-5-yl)-3-fluoro-[1,1′-biphenyl]-4-carbonitrile] | 0.93 | – | 3.1 |
| N#Cc1ccc(-c2cc(C(=O)N3[C@@H]4CC[C@H]3C[C@H](N)C4)ccc2-c2ccc3ccccc3c2)cc1F [Example 104] | 28.8 | 49.8 | – |
| Cn1nnc2cc(-c3ccc(C(=O)N4[C@@H]5CC[C@H]4C[C@@H](N)C5)cc3-c3ccc(C#N)c(F)c3)c(F)cc21 [Example 125] | 7.57 | 8.43 | – |
| CC(C)N[C@@H]1C[C@H]2CC[C@@H](C1)N2C(=O)c1ccc(-c2ccc(CC(C)(C)O)cc2F)c(-c2ccc(C#N)c(F)c2)c1 [Example 113] | 9 | 13.7 | – |
| N#Cc1ccc(-c2cc(C(=O)N3[C@@H]4CC[C@H]3C[C@H](N)C4)ccc2-c2ccc3cccnc3c2F)cc1F [Example 105] | – | 11.7 | – |
| Cn1nnc2cc(-c3ccc(C(=O)N4[C@@H]5CC[C@H]4C[C@H](N)C5)cc3-c3ccc(C#N)c(F)c3)c(F)cc21 [Example 109] | 15.1 | 1.81 | – |
| CCCn1nnc2cc(-c3ccc(C(=O)N4[C@@H]5CC[C@H]4C[C@@H](N)C5)cc3-c3ccc(C#N)c(F)c3)c(F)cc21 [Example 168] | 5.29 | 7.29 | – |
| Cn1ncc2cc(-c3ccc(C(=O)N4[C@@H]5CC[C@H]4C[C@@H](N)C5)cc3-c3ccc(C#N)c(F)c3)c(F)cc21 [Example 124] | 2.84 | 9.02 | – |
| CC(C)(O)Cn1nc(Br)c2cc(-c3ccc(C(=O)N4[C@@H]5CC[C@H]4C[C@@H](N)C5)cc3-c3ccc(C#N)c(F)c3)c(F)cc21 [Example 178, 5′-((3-endo)-3-amino-8-azabicyclo[3.2.1]octane-8-carbonyl)-2′-(3-bromo-6-fluoro-1-(2-hydroxy-2-methylpropyl)-1H-indazol-5-yl)-3-fluoro-[1,1′-biphenyl]-4-carbonitrile] | 3.57 | 3.03 | – |
| CC(C)(O)Cn1nnc2cc(-c3ccc(C(=O)N4C5CCC4C(N)C5)cc3-c3ccc(C#N)c(F)c3)c(F)c(C(F)F)c21 [Example 246, 5′-((1S,2S,4R)-rel-2-amino-7-azabicyclo[2.2.1]heptane-7-carbonyl)-2′-(7-(difluoromethyl)-6-fluoro-1-(2-hydroxy-2-methylpropyl)-1H-benzo[d][1,2,3]triazol-5-yl)-3-fluoro-[1,1′-biphenyl]-4-carbonitrile-isomer-X] | 0.37 | 0.81 | – |
| CC(C)(C)n1nnc2cc(-c3ccc(C(=O)N4[C@@H]5CC[C@H]4C[C@@H](N)C5)cc3-c3ccc(C#N)c(F)c3)c(F)cc21 [Example 139] | 16.9 | – | – |
| Cc1ccc(-c2ccc(C(=O)N3[C@@H]4CC[C@H]3C[C@@H](N)C4)cc2-c2ccc(C#N)c(F)c2)c(F)c1F [Example 144] | 6.37 | – | – |
| Cn1cnc2cc(-c3ccc(C(=O)N4[C@@H]5CC[C@H]4C[C@@H](N)C5)cc3-c3ccc(C#N)c(F)c3)c(F)c(F)c21 [Example 126] | 5.39 | 5.02 | – |
| Cn1nnc2cc(-c3ccc(C(=O)N4[C@@H]5CC[C@H]4C[C@@H](N)C5)cc3-c3ccc(C#N)c(F)c3)c(F)c(F)c21 [Example 145] | 1.61 | 3.29 | – |
| COCCc1ccc(-c2ccc(C(=O)N3[C@@H]4CC[C@H]3C[C@H](NC(C)C)C4)cc2-c2ccc(C#N)c(F)c2)c(F)c1 [Example 112] | – | 20.5 | – |
| CC(C)(O)Cc1ccc(-c2ccc(C(=O)N3[C@@H]4CC[C@H]3C[C@H](N)C4)cc2-c2ccc(C#N)c(F)c2)c(F)c1 [Example 28] | – | 4.4 | – |
